Assay results reported in PubChem BioAssay AID2060502 (Molecular Pharmacology Branch, DTP, NCI, 2025).

Test system: 885724-159-R-J1-PDC complex spheroid viability
Assay: Anticancer human tumor 885724-159-R-J1-PDC patient-derived pancreatic adenocarcinoma cell line growth inhibition [GQUAD]
Conditions: for IC50: curve of first compound; for viability, T/C: stronger effect = lower value
Source text: DNA G-quadruplex Stabilizer Agents in Combinations in Complex Spheroids
A high-throughput screen of multi-cell type tumor spheroids was designed to identify active combinations of DNA G-quadruplex stabilizer agents and targeted small molecules. Complex spheroids include a stromal component modeled by human endothelial cells (HUVEC) and fibroblasts modeled by human mesenchymal stem cells (MSCs). The concentration ranges selected for each drug and investigational agent were based upon clinically achievable concentrations if the clinical Cmax of the agent was known.
Compounds. The drugs and investigational agents: pidnarulex (CX-5461; NSC782164), APTO-253 (NSC789042), BRACO-19 (NSC847499), peposertib (NSC802822), ceralasertib (NSC780249), elimusertib (NSC800525), camonsertib (NSC841442), AZD-1390 (NSC803789), olaparib (NSC753686), talazoparib (NSC767125), ART-558 (NSC835418), sotorasib (NSC818433), MRTX-1133 (NSC836407), SN-38 (NSC673596), topotecan (NSC609699), etoposide (NSC141540), doxorubicin (NSC123127), gemcitabine (NSC613327), 5-fluorouracil (NSC19893), paclitaxel (NSC125973), vemurafenib (NSC761431), panobinostat (NSC761190), R-306465 (JNJ-16241199; NSC773264), adavosertib (NSC754352), TP-3654 (NSC805149), carboplatin (NSC241240), KSQ-4279 (NSC840948), and staurosporine (NSC755774) were obtained from the National Cancer Institute (NCI) Developmental Therapeutics Program Chemical Repository (34). The FDA-approved anticancer drug set is available from the NCI Developmental Therapeutics Program. […] The stock solutions were prepared in dimethyl sulfoxide (DMSO, Sigma-Aldrich, St. Louis, MO, cat. D2650) at 800-fold the tested concentration and stored at -70 degrees C prior to their use. All drugs and investigational agents were tested over a range starting from a high concentration at or near the clinical Cmax and decreasing in half-log increments. If the clinical Cmax for an agent had not been determined, the highest concentration tested was 10 microM.
2.3 Cell Culture. All cells were maintained in an incubator at 37 degrees C and 5% CO2 with 95% humidity. The PDC lines were cultured according to standard operating procedures established by the NCI PDMR. All PDCs were thawed and cultured in Matrigel-coated flasks prepared with a working solution of 1X Ham's F-12 nutrient mix, without supplementation (Invitrogen, cat. 11765054), 100 U/mL penicillin-streptomycin (Invitrogen, cat. 15140122), and 2.5% Matrigel (Corning Inc., cat. 354248) for the first three passages. The 857933-349-R-J2-PDC line was cultured in 6C/Colon 1B media, which includes advanced DMEM/F-12 (Thermo Fisher Scientific, cat. 12634028), 10 mM HEPES (Thermo Fisher Scientific, cat. 15630080), 1X GlutaMAX supplement (Thermo Fisher Scientific, cat. 35050061), 0.1 mg/mL primocin (InvivoGen, cat. ant-pm-2), 10% defined fetal bovine serum, heat inactivated (HyClone Laboratories Inc., cat. SH30070.03HI), 50% L-WRN conditioned media (ATCC, cat. CRL-3276), 1.25 mM N-Acetyl-L-cysteine (Sigma-Aldrich, cat. A9165), 10 mM nicotinamide (Sigma-Aldrich, cat. N0636), 1X B-27 supplement (Thermo Fisher Scientific, cat. 17504044), 1X N-2 supplement (Thermo Fisher Scientific, cat. 17502048), 10 microM Y-27632 dihydrochloride (Tocris Bioscience, cat. 1254), and 50 ng/mL human EGF recombinant protein (Thermo Fisher Scientific, cat. PHG0311). The 485176-168-R4-J1-PDC line was cultured in Panc media, which includes all 6C/Colon 1B media components plus 100 ng/mL human FGF-10 (Thermo Fisher Scientific, cat. 100-26), 500 nM SB-431542 (Selleckchem, cat. S1067), and gastrin (Tocris, cat. 3006).
[…]

[1] = second compound 0.0316 µM, first compound 0.0316 µM
[2] = second compound 0.0316 µM, first compound 0.316 µM
[3] = second compound 0.1 µM, first compound 0.0316 µM
[4] = second compound 0.1 µM, first compound 0.316 µM
[5] = second compound 0.316 µM, first compound 0.0316 µM
[6] = second compound 0.316 µM, first compound 0.316 µM
[7] = second compound 1 µM, first compound 0.0316 µM
[8] = second compound 1 µM, first compound 0.316 µM
[9] = second compound 3.16 µM, first compound 0.0316 µM
[10] = second compound 3.16 µM, first compound 0.316 µM
[11] = second compound 10 µM, first compound 0.0316 µM
[12] = second compound 10 µM, first compound 0.316 µM
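Further: spheroids exposed to agents for seven days before readout.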
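Wherever viability, T/C is given: percent of vehicle control viability where 100% = DMSO wells.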

COc1ncnc(C2CC2)c1-c1ncc2cnn(Cc3ccc(-c4nc(C(F)(F)F)cn4C(C)C)cc3)c2n1 + CN(C)c1ccc(Nc2c3ccc(NC(=O)CCN4CCCC4)cc3nc3cc(NC(=O)CCN4CCCC4)ccc23)cc1
IC50 (second compound 0.0316 µM): > 10000 nM
IC50 (second compound 0.1 µM): > 10000 nM
IC50 (second compound 0.316 µM): > 10000 nM
IC50 (second compound 1 µM): > 10000 nM
IC50 (second compound 3.16 µM): > 10000 nM
IC50 (second compound 10 µM): > 10000 nM
viability, T/C [1]: 96.8%
viability, T/C (second compound 0.0316 µM, first compound 0.1 µM): 101%
viability, T/C [2]: 85.6%
viability, T/C (second compound 0.0316 µM, first compound 1 µM): 86.9%
viability, T/C (second compound 0.0316 µM, first compound 3.16 µM): 81.4%
viability, T/C (second compound 0.0316 µM, first compound 10 µM): 105%
viability, T/C [3]: 103%
viability, T/C (second compound 0.1 µM, first compound 0.1 µM): 88.2%
viability, T/C [4]: 96.9%
viability, T/C (second compound 0.1 µM, first compound 1 µM): 98%
viability, T/C (second compound 0.1 µM, first compound 3.16 µM): 95%
viability, T/C (second compound 0.1 µM, first compound 10 µM): 94.5%
viability, T/C [5]: 97.6%
viability, T/C (second compound 0.316 µM, first compound 0.1 µM): 86.1%
viability, T/C [6]: 82.3%
viability, T/C (second compound 0.316 µM, first compound 1 µM): 80.1%
viability, T/C (second compound 0.316 µM, first compound 3.16 µM): 101%
viability, T/C (second compound 0.316 µM, first compound 10 µM): 95.7%
viability, T/C [7]: 77.5%
viability, T/C (second compound 1 µM, first compound 0.1 µM): 70.4%
viability, T/C [8]: 81.1%
viability, T/C (second compound 1 µM, first compound 1 µM): 67.7%
viability, T/C (second compound 1 µM, first compound 3.16 µM): 79.3%
viability, T/C (second compound 1 µM, first compound 10 µM): 83.1%
viability, T/C [9]: 79.2%
viability, T/C (second compound 3.16 µM, first compound 0.1 µM): 76.7%
viability, T/C [10]: 68.8%
viability, T/C (second compound 3.16 µM, first compound 1 µM): 58%
viability, T/C (second compound 3.16 µM, first compound 3.16 µM): 77.4%
viability, T/C (second compound 3.16 µM, first compound 10 µM): 78.1%
viability, T/C [11]: 61.3%
viability, T/C (second compound 10 µM, first compound 0.1 µM): 66.5%
viability, T/C [12]: 73.5%
viability, T/C (second compound 10 µM, first compound 1 µM): 70.5%
viability, T/C (second compound 10 µM, first compound 3.16 µM): 63.1%
viability, T/C (second compound 10 µM, first compound 10 µM): 47.8%

CCc1c2c(nc3ccc(O)cc13)-c1cc3c(c(=O)n1C2)COC(=O)[C@]3(O)CC + Cc1[nH]c2ccc(F)cc2c1-c1nc2c3cccnc3c3ncccc3c2[nH]1
IC50 (second compound 0.0316 µM): 114 nM
IC50 (second compound 0.1 µM): 110 nM
IC50 (second compound 0.316 µM): 121 nM
IC50 (second compound 1 µM): 125 nM
IC50 (second compound 3.16 µM): < 0.999 nM
IC50 (second compound 10 µM): 62.4 nM
viability, T/C (second compound 0.0316 µM, first compound 0.000999 µM): 96.4%
viability, T/C (second compound 0.0316 µM, first compound 0.00316 µM): 83.6%
viability, T/C (second compound 0.0316 µM, first compound 0.00999 µM): 83.2%
viability, T/C [1]: 73.9%
viability, T/C (second compound 0.0316 µM, first compound 0.0999 µM): 55.5%
viability, T/C [2]: 18.4%
viability, T/C (second compound 0.1 µM, first compound 0.000999 µM): 104%
viability, T/C (second compound 0.1 µM, first compound 0.00316 µM): 90.5%
viability, T/C (second compound 0.1 µM, first compound 0.00999 µM): 76.8%
viability, T/C [3]: 70.4%
viability, T/C (second compound 0.1 µM, first compound 0.0999 µM): 60.9%
viability, T/C [4]: 21.3%
viability, T/C (second compound 0.316 µM, first compound 0.000999 µM): 85.8%
viability, T/C (second compound 0.316 µM, first compound 0.00316 µM): 86%
viability, T/C (second compound 0.316 µM, first compound 0.00999 µM): 73.3%
viability, T/C [5]: 69.5%
viability, T/C (second compound 0.316 µM, first compound 0.0999 µM): 59.8%
viability, T/C [6]: 21.5%
viability, T/C (second compound 1 µM, first compound 0.000999 µM): 78%
viability, T/C (second compound 1 µM, first compound 0.00316 µM): 61.1%
viability, T/C (second compound 1 µM, first compound 0.00999 µM): 57.6%
viability, T/C [7]: 60.6%
viability, T/C (second compound 1 µM, first compound 0.0999 µM): 58.7%
viability, T/C [8]: 18.9%
viability, T/C (second compound 3.16 µM, first compound 0.000999 µM): 43%
viability, T/C (second compound 3.16 µM, first compound 0.00316 µM): 28.7%
viability, T/C (second compound 3.16 µM, first compound 0.00999 µM): 28.4%
viability, T/C [9]: 21.3%
viability, T/C (second compound 3.16 µM, first compound 0.0999 µM): 14.1%
viability, T/C [10]: 7.27%
viability, T/C (second compound 10 µM, first compound 0.000999 µM): 63%
viability, T/C (second compound 10 µM, first compound 0.00316 µM): 58.8%
viability, T/C (second compound 10 µM, first compound 0.00999 µM): 46.8%
viability, T/C [11]: 60.3%
viability, T/C (second compound 10 µM, first compound 0.0999 µM): 45.5%
viability, T/C [12]: 21.4%
